Columns and labels:
[1] = test system: RMA-S pulsed with mGPC3-1 peptide; test: Cytotoxicity assay; type: cell-based, mouse; conditions: mGPC3-1-specific CTL line against RMA-S pulsed with mGPC3-1 peptide; calcein AM, 4 h; non-pulsed RMA-S 2.2%
[2] = test system: RMA-S pulsed with mGPC3-1 peptide; test: IFN-γ ELISPOT of mGPC3-1 peptide-specific CTL line against peptide-pulsed RMA-S; type: cell-based, mouse; conditions: CTL line 1×10^5, RMA-S 5×10^4 pulsed with 10 μg/ml peptide, 20 h
CD8-positive cells = test: IFN-γ ELISPOT after mGPC3-1 peptide vaccine in STAM mice; type: in vivo, STAM mice C57BL/6N-NASH; conditions: STAM mice immunized seven times with mGPC3-1 peptide vaccine; CD8-positive cells against RMA-S pulsed with mGPC3-1 peptide; n=3
GPC3-specific CTLs = conditions: without an autoimmune response; cited from earlier work

Row | Sequence | % cytotoxicity [1] | IFN-γ release of CTL line to peptide-pulsed vs non-pulsed RMA-S (in words) [2] | average number of spots (IFN-γ ELISPOT) (CD8-positive cells) | induction of GPC3-specific CTLs (in words) (GPC3-specific CTLs)
1 | AMFKNNYPSL [mGPC3-1] | 16.4% | clearly released more IFN-γ | 100±74.3 spots | –
2 | EYILSLEEL [GPC3_298–306] | – | – | – | can induce GPC3-specific CTLs
3 | FVGEFFTDV [GPC3_144–152] | – | – | – | can induce GPC3-specific CTLs
